From US11192932B2, “Heparin-binding domain of IGFBP-2 in the treatment of metabolic disorders” (Amolyt Pharma, priority 2018, dated 2021)
Entries after “also recorded” stand apart in the source; their conditions may differ. No end group written: not given here. *: point of attachment. Stearoyl = CCCCCCCCCCCCCCCCCC(=O)*

Experiments:
[1] = test system: C2C12 mouse skeletal muscle myotubes; assay: 3H-2-deoxyglucose uptake by fully differentiated C2C12 myotubes; assay type: cell-based
Protocol: In particular: HBD1 SEQ ID NO: 73 (C18:0-HLGLEEPKK) at 0.8 μM, 1.5 μM, and 2.3 μM; or 1.5 μM SEQ ID NO: 73 (C18:0-HLGLEEPKK) for 2, 4, and 16 hours prior to testing glucose uptake.
The studies were performed using cultured, fully differentiated C2C12 mouse skeletal muscle myotubes. The cells were prepared by growing C2C12 cells to confluent density in DMEM with 25 mM glucose and 10% fetal bovine serum in 24 well plates. At this time, the medium was changed to differentiation medium (DMEM with 25 mM glucose and 2% horse serum) for 6 days with medium changed every third day. The various treatments were diluted in serum-free medium and, after washing the cells with serum-free medium, were added to the cells and incubated for 2 hours or alternative times, depending on the treatment. At the end of incubation period, the media was removed and 1.0 ml of glucose-free Krebs ringer bicarbonate buffer (pH 7.4), containing the same treatments, was added and incubation continued for 10 minutes. At the end of the 10 min incubation period, ^3H-2-deoxyglucose ([…]) (specific activity=8 Ci/mmole) was added directly to all wells, and the incubation continued for an additional […]. The wells were then rinsed three times with ice cold phosphate buffered saline, the cells were extracted with 0.5 N NaOH, and the ^3H-2-deoxyglucose content of the cell lysate quantitated by scintillation counting.

[2] = test system: ob/ob mice; assay: Glucose telemetry and IPGTT in glucose-telemetered ob/ob mice, 28 days of treatment; assay type: in vivo, mouse; settings: for glucose intolerance (3-hour IPGTT profile): glucose telemetered ob/ob mice, 1 and 3 mg/kg s.c. twice daily, 28 days, glucose 1 g/kg i.p., vs vehicle; for 16-hour mean blood glucose levels: day 27, normal fed conditions, vs baseline (Day -1) and vehicle
Protocol: FIG. 2A: 3-hour intraperitoneal glucose tolerance test profiles after 28 days of acylated HBD1 (3-11) fragment treatment. (n=5-8 in each group; p value <0.0001 at both doses vs VHL), Two-way ANOVA with multiple comparison, ****p<0.0001; FIG. 2B: fasting blood glucose levels (average value within 10 min prior to IPGTT) after 28 days of acylated HBD1 (3-11) fragment treatment. (n=5-8 in each group; p value <0.005 at the 3 mg/kg dose vs VHL), Unpaired two-tailed t-test vs VHL, ***p<0.005; FIG. 2C: Areas under the curve of the 3-hour intraperitoneal glucose tolerance test profiles after 28 days of acylated HBD1 (3-11) fragment treatment. (n=5-8 in each group), Unpaired two-tailed t-test vs VHL,*p<0.05, ****p<0.0001.
FIG. 3A: 16-hour mean blood glucose levels before (Day −1) and after 27 days of acylated HBD1 (3-11) fragment treatment. (n=5-8 in each group; **p value <0.001 at the 3 mg/kg dose vs VHL); FIG. 3B: Change from baseline in 16-hour mean blood glucose level after 27 days of acylated HBD1 (3-11) fragment treatment. (n=5-8 in each group; **p value <0.01 at the 3 mg/kg dose vs VHL).
To further assess the effects of HBD1 peptides on glucose and insulin metabolisms, basal blood glucose and glucose response to an intraperitoneal glucose tolerance test (IPGTT) were assessed in glucose-telemetered obese ob/ob mice after twice daily administration of HBD peptides for 28 consecutive days. Implantation of glucose telemetry device (HD-XG, Data Science International) was carried out according to known protocols.
A dose of HBD peptide fragment of SEQ ID NO: 73 (C18:0-HLGLEEPKK) was administered twice daily at 8-hour±1 hour interval between the two daily administrations. 24 V-Lepob/J (Ob/Ob) male mice (The Jackson Laboratory, Farmington, Conn. USA) were administered subcutaneously with vehicle (NaCl 0.9%) (Control group) or with the peptide at 1 and 3 mg/kg (Test groups) (n=5-8 animals for each group) twice daily for 28 days. The first day of dosing was designated as Day 1. Bolus injection was carried out using a sterile syringe and the needle was introduced subcutaneously, 2 to 4 injection sites were used in rotation. The hair of the animals on the injection area was clipped prior to the first injection and then as necessary during the treatment period. The volume administered was 5 mL/kg/administration. Individual dose volumes were calculated using the latest body weight. On day 27, 16-hour mean blood glucose levels were assessed in normal fed conditions. On day 28, fasted (4 hours) mice were injected intraperitoneally with glucose at 1 g/kg. Plasma blood glucose profile (expressed as mg/dL) was recorded every minute up to 3-hour post glucose injection.
Intraperitoneal glucose tolerance test (IPGTT)—On the morning of the IGPTT day (day 28), 2-hour fasted animals were treated with vehicle or with the HBD fragment. Glucose solution was administered 2 hours±15 minutes post-dosing (vehicle or a peptide as set forth in SEQ ID NO: 73 (C18:0-HLGLEEPKK). Blood glucose was monitored from 10 minutes before (fasting condition) to 3-hour post-glucose challenge. Food was re-introduced 4 hours post-glucose challenge. The second treatment of the day (the HBD fragment or vehicle) was performed 2 hours after food re-introduction.

For “C18:0-HLGLEEPKK (Stearoyl-HLGLEEPKK) [SEQ ID NO: 73]”, the “glucose uptake by C2C12 myotubes, dose dependence (FIG. 5A)” value ([1]; 0.8 μM, 1.5 μM and 2.3 μM, vs vehicle-treated controls) was “stimulated increased glucose uptake as compared with vehicle-treated controls in both a dose- and time-dependent manner”, the “glucose uptake by C2C12 myotubes, time dependence (FIG. 5B)” value ([1]; 1.5 μM for 2, 4 and 16 hours) was “time-dependent manner” and the “glucose uptake by C2C12 myotubes with insulin, separate experiment (FIG. 8)” value ([1]; 1.5 μM plus insulin) was “act additively with insulin; also recorded: in an additive manner with insulin”. For the same substance, the “glucose uptake by C2C12 myotubes, separate experiment (FIG. 8)” value ([1]; 1.5 μM, alone) was “increased glucose uptake”, the “glucose uptake by C2C12 myotubes in combination with insulin (FIG. 5C)” value ([1]; peptide plus insulin) was “additive increase in glucose uptake” and the “glucose intolerance (3-hour IPGTT profile)” value [2] was “improved glucose intolerance in a dose-dependent manner”. The “glucose intolerance (3-hour IPGTT profile)” value ([2]; listed as acylated HBD1 (3-11) fragment) was “improves glucose intolerance”, the “effect on fasting glucose levels and glucose excursion following IPGTT at the high dose” value ([2]; ob/ob mice, 3 mg/kg twice daily, 4 weeks) was “marked effect” and the “glucose excursion following IPGTT” value ([2]; ob/ob mice, after 4 weeks (28 days), 1 and 3 mg/kg twice daily) was “decreased”. For the same substance, the fasting glucose levels ([2]; ob/ob mice, after 4 weeks (28 days), average within 10 min prior to IPGTT, 1 and 3 mg/kg twice daily) was “decreased fasting glucose levels”, the “16-hour mean blood glucose levels” value ([2]; ob/ob mice) was “markedly decrease 16-hour average blood glucose levels” and the “16-hour mean blood glucose levels” value ([2]; ob/ob mice, listed as acylated HBD1 (3-11) fragment) was “improves glucose intolerance”.
